Results: patent US20030125319A1, “Methods for assessing, improving, or maintaining urogenital health in postmenopausal women” (priority 2000, published 2003)

Test system: postmenopausal women
Assay: Self-assessment questionnaire (subjective vaginal health questionnaire) in postmenopausal women taking the estrogen agonist/antagonist
Assay type: in vivo, human
Conditions: self-reported by postmenopausal women taking the compound
Experimental: The subject self-assessment of vaginal health is performed with a subjective vaginal health questionnaire. Typically, the questionnaire is performed in private and the results kept confidential. The questionnaire may include an envelope that is specially encoded to later identify the treatment that the subject is undergoing. An additional question may be added in subsequent questionnaires following administration of the baseline questionnaire, which question would ask: “Have you had any positive or negative vaginal changes since you have been taking the study medication?” This question may be coupled to a multiple-point ratings scale ranging from “mostly positive changes,” to “moderately positive changes,” to “mildly positive changes,” to “no changes,” to “mildly negative changes,” to “moderately negative changes,” to “mostly negative changes.”

O=C(O)C(O)C(O)C(=O)O.Oc1ccc2c(c1)CC[C@H](c1ccccc1)[C@@H]2c1ccc(OCCN2CCCC2)cc1 [(−)-cis-6-phenyl-5-[4-(2-pyrrolidin-1-yl-ethoxy)-phenyl]-5,6,7,8-tetrahydro-naphthalene-2-ol, D-tartrate salt]
frequency of sexual intercourse: increased frequency | intensity of orgasms: increased intensity | number of orgasms: increased number
